{"source": "patent US20240252511A1", "about": "“METHODS OF TREATING DEPRESSION AND ANXIETY” (Woolsey Pharmaceuticals, Inc., priority 2021, published 2024)", "origin": "cited, not measured here", "conditions": "in vivo; 1 hydroxy (M3) metabolite", "data": [{"smiles": "O=S(=O)(c1cccc2c(O)nccc12)N1CCCNCC1", "note": "[M3, hydroxyfasudil]", "values": [{"measurement": "half-life", "value": "about 8 hours"}]}]}
